One series concerns HLA-DR, HLA-DQ, HLA-DP. The experiment in a line: HLA class II blocking assays (anti-HLA mAb, TCL proliferation). It is filed as cell-based, human. Conditions: for antibody that blocked T cell recognition of the epitope: Ara h 2 epitopes. As to the method:
Materials and Methods Subjects: Peanut-allergic adult subjects were recruited from The Alfred Allergy Clinic, Melbourne, Australia. […] Some subjects were genotyped (HLA-DRB1, -DQB1 and -DPB1, exon 2) by the Victorian Transplantation and Immunogenetics Service. The study was approved by The Alfred and Monash University Ethics Committees and informed written consent obtained from each subject. Antigens: Crude peanut extract (CPE) was prepared from commercial unsalted, dry-roasted peanuts as described elsewhere, (de Leon et al. Clin Exp Allergy. 2003; 33(9):1273-80) dialyzed against phosphate-buffered saline (PBS) and filter-sterilized (0.2 μm). Natural Ara h 1 and Ara h 2 were enriched from CPE based on published methodology. (de Jong E C et al. Clin Exp Allergy. 1998; 28(6):743-51) Briefly, CPE was buffer exchanged into 20 mM TRIS-bis-propane (TBP), pH 7.2, using Vivaspin columns (Sartorius Stedim Biotech S.A., Aubagne, France) and applied onto a 5 mL Mono-Q 10/10 column (Pharmacia FPLC System, St Albans, UK) equilibrated with TBP. After washing with TBP, a linear gradient of 30 mL 0-1 M NaCl/TBP was applied to elute bound proteins (1 mL/min). Fractions, 0.5 mL, were analyzed by SDS-PAGE and those containing Ara h 1 or Ara h 2 with minimal other proteins pooled and dialyzed against PBS. Endotoxin contents were 1.7, 4.0 and 78.0 EU/mg for CPE, Ara h 1 and Ara h 2 respectively (Endpoint Chromogenic LAL assay, Lonza, Walkersville, USA). Peptides (Mimotopes, Victoria, Australia and GenScript USA Inc, New Jersey, USA) were reconstituted at 1-4 mg/ml in 10% dimethyl sulfoxide/PBS (20-mers and truncated peptide sets) or PBS, 1-2% acetic acid or 0.1M ammonium bicarbonate buffers as specified (custom-synthesized core epitope peptides). All antigens were confirmed to be neither mitogenic nor toxic as described (Eusebius N P et al., Int Arch Allergy Immunol. 2002; 127(3):234-44). Generation of Ara h 1 and Ara h 2-specific CD4+ T-cell lines (TCL): Ara h 1 or Ara h 2-specific oligoclonal TCL were generated from peripheral blood mononuclear cells (PBMC) of peanut-allergic subjects using 5,6-carboxyfluorescein diacetate succinimidylester (CFSE)-based methodology. (Mannering S I et al., J Immunol Methods. 2005; 298(1-2):83-92; Prickett S R, et al., J Allergy Clin Immunol. 2011; 127(3):608-15 el-5). Briefly, culturing was performed in RPMI-1640 containing 2 mM L-glutamine, 100 IU/mL penicillin-streptomycin and 5% human AB serum (Sigma-Aldrich, St Louis, USA) (cRPMI). PBMC were labelled with 0.1 μM CFSE (Molecular Probes, Eugene, USA) and cultured (2.5×10^6/mL) with cRPMI alone, CPE (100 μg/mL), Ara h 1 or Ara h 2 (10 μg/mL), Ara h 1 or Ara h 2 20-mer-peptide pools (10 μg/mL/peptide) or as a control, tetanus toxoid (TT; 10 LfU/mL; Statens Serum Institute, Copenhagen, Denmark) for 7 days at 37° C. After staining with CD4-PE and 7AAD (BD Pharmingen, San Diego, USA), CD4+CFSEdim7AAD-cells were sorted (10 cells/well) into 96-U-well plates containing irradiated allogeneic feeder-cells, anti-CD3 (OKT-3), rIL-2 (Cetus, Emeryville, USA) and Fungizone (Invitrogen, Carlsbad, USA) as described. Cells were fed with rIL-2 as required and after 10-14 days, transferred to 48-well plates and tested for proliferation to Ara h 1 or Ara h 2 (10 μg/mL). Ara h 1 or Ara h 2-positive TCL were expanded with anti-CD3 and rIL-2 in T25 culture flasks (BD, Franklin Lakes, USA) for 10-12 days then tested for specificity (proliferation) to overlapping 20-mer peptides spanning the respective sequence (10 μg/mL). Core epitope sequences were mapped within selected 20-mers using peptide sets truncated from the N- or C-terminus of the 20-mer as described (Prickett S R, et alc. J Allergy Clin Immunol. 2011; 127(3):608-15 el-5). T-cell assays:All culturing was performed in RPMI-1640 containing 2 mM L-glutamine, 100 IU/mL penicillin-streptomycin and 5% heat-inactivated human AB serum (Sigma-Aldrich, St Louis, USA) (cRPMI). […]

The subject of series [1] is HLA-DRB1, -DQB1 and -DPB1. The series is described as follows: HLA-genotyping of subjects whose TCL recognise the epitopes. Further details: species or system human. As to conditions: for HLA allele presenting the epitope / present in all recognising subjects: HLA-typed subjects; for HLA-binding degeneracy (presented by): no shared allele between responding subjects.
The test system of series [2] is PBMC CD4+ T cells of peanut-allergic subjects. The experiment in a line: 7-day CFSE assay of peptide-induced CD4+ T-cell proliferation/activation within whole PBMC. It is filed as cell-based, human. Conditions: screen of 25 new subjects.
A short description of series [3]: Peptide solubility in buffers. It is filed as physicochemical.
The subject of another series is specific IgE. Conditions: cited from earlier work.
[4] abbreviates: Table 4, dominant core T cell epitopes.

“Also recorded” adds a separate entry of the source. No end group written: not given here.

Regarding ALMLPHFNSKAMVIVVV [50 core], the HLA-restriction entry is “HLA-DR” in the series with HLA-DR, HLA-DQ, HLA-DP (setting [4]) and “HLA-DR” in the series with HLA-DR, HLA-DQ, HLA-DP (Table 7, 10 candidate peptides).

For the molecule ANLRPCEQHLM [4/5 core], the “antibody that blocked T cell recognition of the epitope” value in the series on HLA-DR, HLA-DQ, HLA-DP is recorded as “anti-HLA-DR”. The HLA-restriction entry with HLA-DR, HLA-DQ, HLA-DP (setting [4]) is recorded as “HLA-DR; also recorded: HLA-DQ”. Also, in series [1], the “HLA-DR molecules presenting the epitope” value is “at least 2”, the “HLA allele presenting the epitope / present in all recognising subjects” value is “HLA-DQB1*06:09” and the “HLA-binding degeneracy (presented by)” value is listed as “multiple HLA-DRB1 molecules”.

With ANLRPSEQHLM [Peptide 21], in series [2], the “T cell responses compared with longer version containing an additional epitope” value is given as “Induced equivalent T cell”.

For EFENNQRCMCEALQ [10/11 core], the HLA-restriction entry in the series with HLA-DR, HLA-DQ, HLA-DP (setting [4]) is reported as “HLA-DQ”. In series [1], the “HLA allele presenting the epitope / present in all recognising subjects” value is “DRB1*15:01” and the “HLA-binding degeneracy (presented by)” value was “multiple HLA-DQB1 molecules”. For the molecule EFENNQRSMSEALQ [Peptide 23], the “T cell responses compared with longer version containing an additional epitope” value in series [2] is “Induced equivalent T cell”. As for ELNEFENNQRCM [10 core], the HLA-restriction result with HLA-DR, HLA-DQ, HLA-DP (setting [4]) is listed as “HLA-DR”.

For the molecule ELNEFENNQRSMSEALQ [10 + 10/11 core], the HLA-restriction result in the series with HLA-DR, HLA-DQ, HLA-DP (Table 7, 10 candidate peptides) is on record as “HLA-DR; also recorded: or -DQ”. As for “EVKPDKKNPQLQ (listed as Arachis hypogaea) [Peptide 15]”, in series [2], the “T cell responses compared with longer version containing an additional epitope” value is on record as “Induced equivalent T cell”. Also, the HLA-restriction entry in the series on HLA-DR, HLA-DQ, HLA-DP (setting [4]) is given as “HLA-DR”. In the case of “FQNLQNHRIV (listed as Arachis hypogaea) [23 core]”, the HLA-restriction entry in the series with HLA-DR, HLA-DQ, HLA-DP (setting [4]) was “HLA-DR”.

Take “FQNLQNHRIVQIEAKPNTLV (listed as Arachis hypogaea) [Peptide 1]”: the HLA-restriction entry with HLA-DR, HLA-DQ, HLA-DP (Table 7, 10 candidate peptides) is “HLA-DR”. As to “GDVFIMPAAHPVAINASS (listed as Arachis hypogaea) [57 core]”, the HLA-restriction entry is on record as “HLA-DR; also recorded: HLA-DQ” with HLA-DR, HLA-DQ, HLA-DP (setting [4]) and “HLA-DR; also recorded: HLA-DQ” in the series on HLA-DR, HLA-DQ, HLA-DP (Table 7, 10 candidate peptides).

In the case of “GDVFIMPAAHPVAINASSE [Peptide 7, GDVFIMPAAHPVAINASSE]”, the “solubility of the version without the added C-terminal ‘E’” value in series [3] is given as “insoluble except in toxic buffers”. For the same molecule, the “solubility in PBS, 0.1M NH4HCO3, or 1-2% acetic acid” value in series [3] (redesigned new version for peptide 7) is “soluble; peptide 7 in Table 7)”.

For the molecule “KAMVIVVVNKG (KAMVIVVVNKGTGNLELVAVD; listed as Arachis hypogaea) [50/51 core]”, the HLA-restriction entry with HLA-DR, HLA-DQ, HLA-DP (setting [4]) was “HLA-DR”. In the case of KAMVIVVVNKGTGNLELVAV [51 ‘core’], the HLA-restriction result with HLA-DR, HLA-DQ, HLA-DP (setting [4]) was “HLA-DR”; with HLA-DR, HLA-DQ, HLA-DP (Table 7, 10 candidate peptides), “HLA-DR”. For NNFGKLFEVKPDKKNPQ [46 core], the HLA-restriction result in the series with HLA-DR, HLA-DQ, HLA-DP (setting [4]) is “HLA-DR”.

For “NNFGKLFEVKPDKKNPQLQ (listed as Arachis hypogaea) [46 + 47 core]”, in the series on HLA-DR, HLA-DQ, HLA-DP (Table 7, 10 candidate peptides), the HLA-restriction entry is given as “HLA-DR”.

For RELRNLPQQCGLRA [15 core], the “antibody that blocked T cell recognition of the epitope” value in the series on HLA-DR, HLA-DQ, HLA-DP is reported as “anti-HLA-DR”. Further, the “HLA-binding degeneracy (presented by)” value in series [1] is “multiple HLA-DRB1 molecules”. For “RIVQIEAKPNTLV (listed as Arachis hypogaea) [24 core]”, the HLA-restriction result in the series with HLA-DR, HLA-DQ, HLA-DP (setting [4]) was “HLA-DR”. With SQLERANLRPCEQ [4 core], the “antibody that blocked T cell recognition of the epitope” value in the series on HLA-DR, HLA-DQ, HLA-DP is recorded as “anti-HLA-DP”. For the same molecule, the HLA-restriction result in the series on HLA-DR, HLA-DQ, HLA-DP (setting [4]) is “HLA-DP”. Besides, in series [1], the “HLA allele presenting the epitope / present in all recognising subjects” value is recorded as “DPB1*04:01”. “VEIKEGALMLPHFNSKA (listed as Arachis hypogaea) [Peptide 4]”: the HLA-restriction entry in the series with HLA-DR, HLA-DQ, HLA-DP (setting [4]) is “HLA-DQ”; in the series on HLA-DR, HLA-DQ, HLA-DP (Table 7, 10 candidate peptides) it was “HLA-DQ”. WSTRSSENNEGVIVKVSKE [40 core]: the HLA-restriction result with HLA-DR, HLA-DQ, HLA-DP (setting [4]) is recorded as “HLA-DQ”; in the series with HLA-DR, HLA-DQ, HLA-DP (Table 7, 10 candidate peptides) it was “HLA-DQ”.

B1: Ara h 2: major peanut allergen, glycoprotein of the conglutin seed storage family (protein, listed as Arachis hypogaea)
chain: LTILVALALFLLAAHASARQQWELQGDRRCQSQLERANLRPCEQHLMQKIQRDEDSYERDPYSPSQDPYSPSPYDRRGAGSSQHQERCCNELNEFENNQRCMCEALQQIMENQSDRLQGRQQEQQFKRELRNLPQQCGLRAPQRCDLDVESGGRDRY
On to B1, for which the “sera reactive with Ara h 2” value in the series on specific IgE (Burks et al, 1992) is 6 out of 6. Further, the “subjects with specific IgE to purified natural Ara h 2” value with specific IgE (de Jong's group) is reported as “approximately 78%”. In addition, the “subjects possessing specific IgE to Ara h 2” value with specific IgE (western blotting of crude peanut extract, Clarke) is listed as 71%. The “subjects possessing IgE towards recombinant form” value in the series on specific IgE (western blotting, Kleber-Janke et al.) is 85%.

Values taken from patent publication US11986522B2, “Immunotherapeutic composition and uses thereof” (ARAVAX PTY LTD, priority 2013, dated 2024).
